Measurements taken from PMC9043818, “Coordination complexes of zinc and manganese based on pyridine-2,5-dicarboxylic acid N-oxide: DFT studies and antiproliferative activities consideration” (RSC Advances, 2021).
Read-outs that look alike come from different tables or passages of the source.

Key:
[1] = system: human breast cancer cells MCF-7; assay: MTT antiproliferative assay, MCF-7; assay type: cell-based; details: mean ± SD
Description: (§1) Human breast cancer cells MDA-MD-231 (ATCC HTB-26), human breast cancer cells MCF-7 (ATCC HTB-22), human cervix epithelial carcinoma HeLa (ATCC CCL-2), human colon cancer cell line HT-29 (ATCC HTB-38), mouse neuroblastoma cell line Neuro-2a (ATCC CCL-131) and mouse fibroblast L-929 cell line (ATCC CCL-1) were obtained from the American Type Culture Collection (ATCC; Manassas, VA, USA) and cultured at 37 °C in a humidified atmosphere of 5% CO2 in air. HeLa cells were cultured in Dulbecco's Modified Eagle's Medium (DMEM) with 0.1 mM nonessential amino acids, 2 mM L-glutamine, 1.0 mM sodium pyruvate and 5% fetal bovine serum, at 37 °C in an atmosphere of 5% CO2. Cells were plated in 96-well sterile plates at a density of 1 × 10^4 cells per well in 100 μL of medium and incubated for 24 h. Also MDA-MD-231, HT-29, MCF-7 and Neuro-2a were cultured in DMEM containing 10% fetal bovine serum, 100 units per ml of penicillin and 100 μg ml^−1 of streptomycin. L-929 cells were cultured in RPMI-1640 medium containing 10% fetal bovine serum, 100 units per ml of penicillin and 100 μg ml^−1 of streptomycin.
(§2) Complexes 1–3 ([Mn2(pydco)2(bpy)2(H2O)2]·2H2O (1), [Zn(bpy)(Hpydco)2] (2) and [Zn(bpy)Cl(Hpydco)]·2H2O (3)) were screened for antiproliferative activity against human breast cancer cells (MDA-MD-231), human cervix epithelial carcinoma (HeLa), human colon cancer cell line (HT-29), human breast cancer cells (MCF-7), mouse neuroblastoma cell line (Neuro-2a) and mouse fibroblast L-929 cell line using cisplatin as a comparative standard. Cell viability was evaluated by a colorimetric method based on the tetrazolium salt MTT ([3-(4,5-dimethylthiazol-2-yl)-2,5-diphenyltetrazolium bromide]), which is reduced by living cells to yield purple formazan crystals. Cells were seeded in 96-well plates at a density of 2–5 × 10^4 cells of MDA-MD-231, MCF-7, HeLa, HT-29, Neuro-2a and L-929 per well in 200 μL of culture medium and left to incubate overnight for optimal adherence. After careful removal of the medium, 200 μL of a dilution series of the complexes in fresh medium were added and incubation was performed at 37 °C/5% CO2 for 72 h. Complexes 1–3 were first solubilized in DMSO, diluted in medium and added to the cells in final concentrations between 20 nM and 200 μM. […] Cisplatin was first solubilized in saline and then added at the same concentrations used for the other complexes. At the end of the incubation period, the complexes were removed, and the cells were incubated with 200 μL of MTT solution (500 μg ml^−1). After 3–4 h at 37 °C/5% CO2, the medium was removed, and the purple formazan crystals were dissolved in 200 μL of DMSO by shaking. The cell viability was evaluated by measurement of the absorbance at 570 nm by using a STAT FAX-2100 microplate reader (Awareness Technology, Palm City, FL, USA). The cell viability was calculated by dividing the absorbance of each well by that of the control wells (cells treated with medium containing 1% DMSO). Each experiment was repeated at least three times and each point was determined in at least three replicates.
(§3) IC50 values are expressed as mean ± standard deviation (SD) from at least three independent experiments. Statistical tests including One way ANOVA, Tukey multiple comparison or unpaired Student's t-tests were performed using SPSS, ver.17 software. A p value of less than 0.05 was considered as significant.

[2] = system: human breast cancer cells MDA-MD-231; assay: MTT antiproliferative assay, MDA-MD-231; assay type: cell-based; details: 72 h incubation, mean ± SD
Description: as §1, §2, §3

[3] = system: human colon cancer cell line HT-29; assay: MTT antiproliferative assay, HT-29; assay type: cell-based; details: mean ± SD
Description: as §1, §2, §3

[4] = system: human cervix epithelial carcinoma HeLa; assay: MTT antiproliferative assay, HeLa; assay type: cell-based; details: 72 h incubation, mean ± SD
Description: as §1, §2, §3

[5] = system: mouse neuroblastoma cell line Neuro-2a; assay: MTT antiproliferative assay, Neuro-2a; assay type: cell-based; details: 72 h incubation, mean ± SD
Description: as §1, §2, §3

[6] = system: mouse fibroblast L-929 cell line; assay: MTT assay, normal cell line L929; assay type: cell-based; details: IC50 > 100 μM considered inactive, read-out: IC50 ± SD L929
Description: as §1, §2, §3

[7] = system: MDA-MB-231 cancer cell line; assay: Apoptosis assay by flow cytometry (Annexin V-FITC/PI); assay type: cell-based, human; details: for Apoptotic cells (%) / Late apoptotic/necrotic cells (%) / Necrotic cells (%) / Vital cells (%): MDA-MD-231, 24 h; for Apoptotic cells (%) / Late apoptotic/necrotic cells (%) / Necrotic cells (%) / Vital cells (%) / induction of apoptosis (flow cytometry): concentration close to the IC50; for induction of apoptosis (flow cytometry): MDA-MB-231, 24 h; for population of apoptotic cell, fold higher than cisplatin: at the same concentration as cisplatin
Description: In order to study in which way 1–3 produced the cellular death (necrosis or apoptosis) studies of flow cytometry were performed on the complexes and cisplatin as a reference. Four areas in the diagrams stand for necrotic cells (Q1, low Annexin V-FITC and high PI signal, left square on the top), late apoptosis or necrosis cells (Q2, high Annexin V-FITC and high PI signal, right square on the top), live cells (Q3, low Annexin V-FITC and low PI signal, left square at the bottom), apoptosis cells (Q4, high Annexin V-FITC and low PI signal, right square at the bottom), respectively.

[8] = system: MDA-MB-231 breast cancer cells; assay: TUNEL assay (dUTP-FITC, confocal microscopy); assay type: cell-based, human; details: MDA-MB-231, 24 h, vs 0.3% DMSO controls
Description: Analysis of apoptosis for 2 and 3 by cytometry using TUNEL assay. Also, apoptosis was detected using an in situ cell death detection kit (Boehringer Mannheim Corp., Indianapolis, IN) as described by Narla et al. and Zhu et al. (Narla et al., 2000;[42] Zhu et al., 1998 (ref. [43])). Cells were incubated with 1–3 in 0.3% DMSO or 1 : […], permeabilized and incubated with the reaction mixture containing TdT- and FITC-conjugated dUTP, and counterstained with propidium iodide. Cells were transferred to slides and viewed with a confocal laser scanning microscope (Bio-Rad MRC 1024) mounted on a Nikon Eclipse E800 series upright microscope as reported previously (Narla et al., 2000;[42] Zhu et al., 1998 (ref. [43])).

[9] = system: MDA-MD-231, MCF-7, HeLa, HT-29, Neuro-2a and L-929 cell lines; assay: MTT assay, range over all cell lines; assay type: cell-based; details: 72 h, all six cell lines, read-out: IC50 values, span over all cell lines
Description: Human breast cancer cells MDA-MD-231 (ATCC HTB-26), human breast cancer cells MCF-7 (ATCC HTB-22), human cervix epithelial carcinoma HeLa (ATCC CCL-2), human colon cancer cell line HT-29 (ATCC HTB-38), mouse neuroblastoma cell line Neuro-2a (ATCC CCL-131) and mouse fibroblast L-929 cell line (ATCC CCL-1) were obtained from the American Type Culture Collection (ATCC; Manassas, VA, USA) and cultured at 37 °C in a humidified atmosphere of 5% CO2 in air. HeLa cells were cultured in Dulbecco's Modified Eagle's Medium (DMEM) with 0.1 mM nonessential amino acids, 2 mM L-glutamine, 1.0 mM sodium pyruvate and 5% fetal bovine serum, at 37 °C in an atmosphere of 5% CO2. […]
Complexes 1–3 ([Mn2(pydco)2(bpy)2(H2O)2]·2H2O (1), [Zn(bpy)(Hpydco)2] (2) and [Zn(bpy)Cl(Hpydco)]·2H2O (3)) were screened for antiproliferative activity against human breast cancer cells (MDA-MD-231), human cervix epithelial carcinoma (HeLa), human colon cancer cell line (HT-29), human breast cancer cells (MCF-7), mouse neuroblastoma cell line (Neuro-2a) and mouse fibroblast L-929 cell line using cisplatin as a comparative standard. Cell viability was evaluated by a colorimetric method based on the tetrazolium salt MTT ([3-(4,5-dimethylthiazol-2-yl)-2,5-diphenyltetrazolium bromide]), which is reduced by living cells to yield purple formazan crystals. […]

[10] = experiment for 2 (Table 4), 2 and cisplatin at the same concentration
[11] = experiment for 3 (Table 5), 3 and cisplatin at the same concentration, MDA-MB-231
[12] = Homo sapiens, MCF7, 72 h incubation
[13] = Homo sapiens, HT-29, 72 h incubation
[14] = Mus musculus, L929, 72 h incubation

Compound | IC50 ([1]; 72 h incubation) | IC50 [2] | IC50 ([3]; 72 h incubation) | IC50 [4] | IC50 [5] | IC50 ([6]; 72 h incubation) | population of apoptotic cell (apoptotic + late apoptotic) [7, 10] | Apoptotic cells (%) ([7]; experiment for 2) | Late apoptotic/necrotic cells (%) ([7]; experiment for 2) | Necrotic cells (%) ([7]; experiment for 2) | Vital cells (%) ([7]; experiment for 2) | population of apoptotic cell (apoptotic + late apoptotic) [7, 11] | Apoptotic cells (%) ([7]; experiment for 3) | Late apoptotic/necrotic cells (%) ([7]; experiment for 3) | Necrotic cells (%) ([7]; experiment for 3) | Vital cells (%) ([7]; experiment for 3) | IC50 [1, 12] | IC50 ([2]; Homo sapiens) | IC50 [3, 13] | IC50 ([4]; Homo sapiens, HeLa) | further results
N.N.[Cl][Pt][Cl] [Cisplatin, cisplatin, reference compound] | 5.94 ± 1.47 µM | 24.7 ± 4.71 µM | 19.3 ± 3.46 µM | 0.45 ± 0.13 µM | 103 ± 9.8 µM | 0.7 ± 0.2 µM | 65.28% | 34.65% | 30.63% | 0.98% | 33.74% | 35.8% | 15.80% | 20.00% | 3.20% | 61.00% |  |  |  |  | 
O=C(O)c1ccc(C(=O)O)[n+]([O-])c1 [Complex H2pydco, pyridine-2,5-dicarboxylic acid N-oxide] |  |  |  |  |  |  |  |  |  |  |  |  |  |  |  |  | 57.9 ± 5.33 µM | 45.7 ± 4.75 µM | 58.9 ± 5.01 µM | 67.1 ± 5.45 µM | IC50 ([5]; mouse/rat NG108-15, N2a): > 100 µM; IC50 [6, 14]: > 100 µM
c1ccc(-c2ccccn2)nc1 [bpy, 2,2′-bipyridine, reference compound] |  |  |  |  |  |  |  |  |  |  |  |  |  |  |  |  | 51.3 ± 4.78 µM | 24.9 ± 1.98 µM | 67.8 ± 5.54 µM | 46.5 ± 4.03 µM | IC50 ([5]; mouse/rat NG108-15, N2a): 97.3 ± 8.7 µM; IC50 [6, 14]: > 100 µM
[Mn2(pydco)2(bpy)2(H2O)2]·2H2O [Complex 1] | 56.6 ± 7.78 µM | 28.9 ± 2.47 µM | 57.9 ± 4.71 µM | 39.2 ± 2.98 µM | 79.5 ± 8.44 µM | > 100 µM |  |  |  |  |  |  |  |  |  |  |  |  |  |  | 
[Zn(bpy)(Hpydco)2] [Complex 2] | 15.6 ± 3.24 µM | 5.94 ± 1.98 µM | 17.3 ± 2.57 µM | 41.2 ± 5.07 µM | 81.2 ± 9.28 µM | > 100 µM | 79.45% | 43.91% | 35.54% | 0.82% | 19.73% |  |  |  |  |  |  |  |  |  | induction of apoptosis (flow cytometry) [7]: could induce apoptosis; population of apoptotic cell, fold higher than cisplatin ([7]; MDA-MB-231): ~1.2 fold; induction of apoptosis (TUNEL, apoptotic nuclei) [8]: induce apoptosis; IC50 [9]: 5.94 to 100 µM
[Zn(bpy)Cl(Hpydco)]·2H2O [Complex 3] | 17.9 ± 2.66 µM | 9.18 ± 2.25 µM | 14.6 ± 3.55 µM | 37.6 ± 4.61 µM | 87.7 ± 6.93 µM | > 100 µM |  |  |  |  |  | 63.3% | 4.30% | 59.00% | 4.70% | 32.00% |  |  |  |  | induction of apoptosis (flow cytometry) [7]: could induce apoptosis; population of apoptotic cell, fold higher than cisplatin ([7]; MDA-MB-231): ~1.8 fold; induction of apoptosis (TUNEL, apoptotic nuclei) [8]: induce apoptosis; IC50 [9]: 5.94 to 100 µM
